{"source": "paper PMC11606603", "about": "“The membrane domains of mammalian adenylyl cyclases are lipid receptors” (eLife, 2024)", "target": "T1, mAC3 (Homo sapiens, UniProt O60266)", "T1 construct": "Human mAC genes were from GenScript and fitted with a C-terminal FLAG-tag; FLAG (C); made in house; host or cells: HEK293, permanently transfected; membrane preparation", "T1 sequence (O60266 whole entry)": "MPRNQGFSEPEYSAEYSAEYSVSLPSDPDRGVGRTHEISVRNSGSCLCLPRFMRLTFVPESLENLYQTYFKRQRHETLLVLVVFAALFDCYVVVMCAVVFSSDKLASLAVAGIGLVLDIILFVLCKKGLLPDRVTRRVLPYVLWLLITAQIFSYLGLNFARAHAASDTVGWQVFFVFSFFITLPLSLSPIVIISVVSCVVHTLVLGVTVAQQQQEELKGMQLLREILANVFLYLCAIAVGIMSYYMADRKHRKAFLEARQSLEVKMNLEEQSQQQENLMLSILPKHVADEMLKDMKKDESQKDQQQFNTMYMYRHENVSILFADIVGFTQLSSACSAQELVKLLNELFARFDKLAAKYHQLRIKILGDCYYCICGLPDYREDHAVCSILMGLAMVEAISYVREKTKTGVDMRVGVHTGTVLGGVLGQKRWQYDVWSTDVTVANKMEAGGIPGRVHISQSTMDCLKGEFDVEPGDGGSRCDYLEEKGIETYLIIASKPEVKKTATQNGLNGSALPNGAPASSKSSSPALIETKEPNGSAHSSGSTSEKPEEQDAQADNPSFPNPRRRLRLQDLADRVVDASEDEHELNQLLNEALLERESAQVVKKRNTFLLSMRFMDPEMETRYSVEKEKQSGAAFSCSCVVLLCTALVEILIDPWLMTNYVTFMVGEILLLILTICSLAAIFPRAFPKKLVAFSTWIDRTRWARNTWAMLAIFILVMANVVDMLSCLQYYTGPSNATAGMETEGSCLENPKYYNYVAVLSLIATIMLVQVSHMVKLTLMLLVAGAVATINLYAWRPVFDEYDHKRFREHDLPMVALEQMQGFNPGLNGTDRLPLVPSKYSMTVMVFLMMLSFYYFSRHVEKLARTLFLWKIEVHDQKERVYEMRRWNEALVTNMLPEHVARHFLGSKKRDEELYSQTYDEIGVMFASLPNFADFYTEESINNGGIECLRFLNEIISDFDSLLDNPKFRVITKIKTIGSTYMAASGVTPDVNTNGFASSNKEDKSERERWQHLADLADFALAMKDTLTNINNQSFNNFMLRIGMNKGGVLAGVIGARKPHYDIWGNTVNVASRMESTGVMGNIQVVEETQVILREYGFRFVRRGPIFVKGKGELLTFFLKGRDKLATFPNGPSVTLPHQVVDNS", "T1 sequence (P63092 whole entry Q227L partner)": "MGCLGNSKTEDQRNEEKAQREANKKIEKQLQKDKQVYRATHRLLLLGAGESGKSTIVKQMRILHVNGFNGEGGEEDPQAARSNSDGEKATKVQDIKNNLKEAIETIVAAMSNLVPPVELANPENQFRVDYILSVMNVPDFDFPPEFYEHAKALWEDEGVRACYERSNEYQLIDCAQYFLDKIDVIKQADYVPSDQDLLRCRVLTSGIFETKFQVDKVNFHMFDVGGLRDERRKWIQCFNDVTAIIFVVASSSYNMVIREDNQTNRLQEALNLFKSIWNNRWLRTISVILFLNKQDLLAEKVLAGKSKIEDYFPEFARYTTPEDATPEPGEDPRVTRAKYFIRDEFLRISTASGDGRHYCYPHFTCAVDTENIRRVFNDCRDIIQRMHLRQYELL", "test": "AC assay, Gsα-stimulated mAC3 in membranes from transfected HEK293 cells", "type": "biochemical", "set-up": "ATP/V (mAC3 + 20µM Oleic acid): unit not given here", "details": "for ATP/V (mAC3 + 20µM Oleic acid): Hanes-Woolf plot; for mAC3 activity + 20µM Oleic acid: Michaelis-Menten; for mAC3 activity [%] (100% = 300nM Gsα stimulation): individual experiments", "how_it_was_run": "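EC50 and IC50 values come from cAMP production, read with a Cisbio cAMP kit and converted via a standard curve. Assay mix held 1 mM ATP, 2 mM MgCl2, 3 mM creatine phosphate and 60 μg/ml creatine kinase in 50 mM MOPS pH 7.5, using transfected HEK293 membranes.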", "note": "Where “and” joins values, the source holds several entries; their conditions need not be identical. Equal entries are not always repeated.", "data": [{"compound": "CCCCCCCC/C=C\\CCCCCCCC(=O)O", "note": "[Oleic acid, Oleic ((9Z)-octadecenoic) acid]", "values": [{"measurement": "time over which the action on mAC3 was linear", "setting": "300 nM Gsα + 20 µM oleic acid, 37°C", "result": "> 25", "unit": "min"}, {"measurement": "enhancement of cAMP formation, mAC3", "setting": "20 µM oleic, over the Gsα concentration range tested", "result": "about 3.4 fold"}, {"measurement": "Effect of lipid on 300 nM Gsα-stimulated mAC3", "setting": "20 µM, in words", "result": "threefold"}, {"measurement": "activity, mAC3 + 20µM Oleic acid", "setting": "Gsα 100 nM", "result": "0.209 cAMP nmol/mg/min and 0.110 cAMP nmol/mg/min and 0.112 cAMP nmol/mg/min"}, {"measurement": "activity, mAC3 + 20µM Oleic acid", "setting": "Gsα 300 nM", "result": "0.432 cAMP nmol/mg/min and 0.605 cAMP nmol/mg/min and 0.596 cAMP nmol/mg/min"}, {"measurement": "activity, mAC3 + 20µM Oleic acid", "setting": "Gsα 450 nM", "result": "0.779 cAMP nmol/mg/min and 1.182 cAMP nmol/mg/min and 0.727 cAMP nmol/mg/min"}, {"measurement": "activity, mAC3 + 20µM Oleic acid", "setting": "Gsα 600 nM", "result": "0.825 cAMP nmol/mg/min and 1.078 cAMP nmol/mg/min and 1.302 cAMP nmol/mg/min"}, {"measurement": "activity, mAC3 + 20µM Oleic acid", "setting": "Gsα 800 nM", "result": "1.075 cAMP nmol/mg/min and 1.164 cAMP nmol/mg/min and 1.303 cAMP nmol/mg/min"}, {"measurement": "activity, mAC3 + 20µM Oleic acid", "setting": "Gsα 1000 nM", "result": "1.029 cAMP nmol/mg/min and 1.444 cAMP nmol/mg/min and 1.731 cAMP nmol/mg/min"}, {"measurement": "ATP/V (mAC3 + 20µM Oleic acid)", "setting": "ATP 50 µM", "result": 208.8}, {"measurement": "ATP/V (mAC3 + 20µM Oleic acid)", "setting": "ATP 75 µM", "result": 204.9}, {"measurement": "ATP/V (mAC3 + 20µM Oleic acid)", "setting": "ATP 250 µM", "result": 392.9}, {"measurement": "ATP/V (mAC3 + 20µM Oleic acid)", "setting": "ATP 500 µM", "result": 636.9}, {"measurement": "ATP/V (mAC3 + 20µM Oleic acid)", "setting": "ATP 750 µM", "result": 814.6}, {"measurement": "ATP/V (mAC3 + 20µM Oleic acid)", "setting": "ATP 1000 µM", "result": 941.6}, {"measurement": "mAC3 activity + 20µM Oleic acid", "setting": "ATP 50 µM", "result": "0.232 nmol cAMP/mg/min and 0.247 nmol cAMP/mg/min"}, {"measurement": "mAC3 activity + 20µM Oleic acid", "setting": "ATP 75 µM", "result": "0.434 nmol cAMP/mg/min and 0.298 nmol cAMP/mg/min"}, {"measurement": "mAC3 activity + 20µM Oleic acid", "setting": "ATP 250 µM", "result": "0.713 nmol cAMP/mg/min and 0.609 nmol cAMP/mg/min and 0.587 nmol cAMP/mg/min"}, {"measurement": "mAC3 activity + 20µM Oleic acid", "setting": "ATP 500 µM", "result": "0.786 nmol cAMP/mg/min and 0.782 nmol cAMP/mg/min and 0.787 nmol cAMP/mg/min"}, {"measurement": "mAC3 activity + 20µM Oleic acid", "setting": "ATP 750 µM", "result": "0.817 nmol cAMP/mg/min and 0.753 nmol cAMP/mg/min and 1.192 nmol cAMP/mg/min"}, {"measurement": "mAC3 activity + 20µM Oleic acid", "setting": "ATP 1000 µM", "result": "0.944 nmol cAMP/mg/min and 1.156 nmol cAMP/mg/min and 1.086 nmol cAMP/mg/min"}, {"measurement": "EC50", "setting": "enhancement of 300 nM Gsα-stimulated activity", "result": 10.4, "unit": "µM"}, {"measurement": "mAC3 activity [%] (100% = 300nM Gsα stimulation)", "setting": "fatty acid 0.5 µM", "result": 100, "unit": "%"}, {"measurement": "mAC3 activity [%] (100% = 300nM Gsα stimulation)", "setting": "fatty acid 1 µM", "result": "112% and 105% and 91% and 64% and 97% and 107% and 78% and 95% and 111% and 139% and 103% and 106% and 87%"}, {"measurement": "mAC3 activity [%] (100% = 300nM Gsα stimulation)", "setting": "fatty acid 3 µM", "result": "98% and 158% and 97% and 183% and 141% and 160% and 142% and 105% and 145% and 150%"}, {"measurement": "mAC3 activity [%] (100% = 300nM Gsα stimulation)", "setting": "fatty acid 6 µM", "result": "117% and 105% and 165% and 187% and 143% and 169% (2×) and 166% and 97%"}, {"measurement": "mAC3 activity [%] (100% = 300nM Gsα stimulation)", "setting": "fatty acid 10 µM", "result": "271% and 106% and 156% and 151% and 142% and 280% and 178% and 252% and 181% and 191% and 139% and 175% and 284% and 260% and 266% and 166%"}, {"measurement": "mAC3 activity [%] (100% = 300nM Gsα stimulation)", "setting": "fatty acid 20 µM", "result": "341% and 348% and 429% and 323% and 430% and 264% and 322% and 395% and 181% and 452% and 464% and 265% (2×)"}, {"measurement": "mAC3 activity [%] (100% = 300nM Gsα stimulation)", "setting": "fatty acid 20 µM, listed as Oleic", "result": "298% and 532% and 253% and 428% and 297%"}, {"measurement": "mAC3 activity; stimulated by 300nM Gsα + 20µM Oleic acid", "setting": "time 3 min, 37°C", "result": "2.601 cAMP nmol/mg and 2.019 cAMP nmol/mg"}, {"measurement": "mAC3 activity; stimulated by 300nM Gsα + 20µM Oleic acid", "setting": "time 6 min, 37°C", "result": "2.734 cAMP nmol/mg and 2.75 cAMP nmol/mg"}]}]}
